This note sets out measurements from publication PMC12621043, “Un-LOK-ing a New Approach for Conformational Selective Targeting of STK10 (LOK)” (ACS Medicinal Chemistry Letters, 2025).

In general, ΔTm refers to the change in melting temperature against a reference sample. One may read the IC50 as the concentration that inhibits the measured activity by half. Higher therefore signals weaker potency in that assay.

For one assay, the target named is T1, BMP2KA (Homo sapiens, UniProt Q9NSY1).
T1 construct: purchased in-house DSF kinase panel (SGC-style construct names; the trailing letter is the construct ID)
Kind of assay: DSF Tm panel. The format is binding. The note with it: 10 μM compound.

Another assay concerns the target T2, BMX (BMXA) (Homo sapiens, UniProt P51813).
T2 construct: purchased in-house DSF kinase panel (SGC-style construct names; the trailing letter is the construct ID)
In words: DSF Tm panel. The format is binding. The note with it: 10 μM compound.

Another assay concerns the target T3, CAMK1DA (Homo sapiens, UniProt Q8IU85).
T3 construct: purchased in-house DSF kinase panel (SGC-style construct names; the trailing letter is the construct ID)
In words: DSF Tm panel. The format is binding. The conditions noted are these: 10 μM compound.

The target of a further assay is T4, EPHA5A (Homo sapiens, UniProt P54756).
T4 construct: purchased in-house DSF kinase panel (SGC-style construct names; the trailing letter is the construct ID)
T4 sequence (P54756 653-939): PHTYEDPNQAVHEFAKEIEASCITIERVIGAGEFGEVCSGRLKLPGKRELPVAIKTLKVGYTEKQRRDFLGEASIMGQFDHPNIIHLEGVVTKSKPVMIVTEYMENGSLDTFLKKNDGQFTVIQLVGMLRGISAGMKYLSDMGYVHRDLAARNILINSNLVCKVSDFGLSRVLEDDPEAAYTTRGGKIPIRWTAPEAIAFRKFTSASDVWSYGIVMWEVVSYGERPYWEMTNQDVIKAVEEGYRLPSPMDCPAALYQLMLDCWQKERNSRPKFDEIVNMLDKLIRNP
Kind of assay: DSF Tm panel. In kind it is binding. The note with it: 10 μM compound.

A further assay concerns the target T5, FGFR1B (Homo sapiens, UniProt P11362).
T5 construct: purchased in-house DSF kinase panel (SGC-style construct names; the trailing letter is the construct ID)
In words: DSF Tm panel. The format is binding. The conditions noted are these: 10 μM compound.

The next assay has as its target T6, GAKA (Homo sapiens, UniProt O14976).
T6 construct: purchased in-house DSF kinase panel (SGC-style construct names; the trailing letter is the construct ID)
T6 sequence (O14976 14-351): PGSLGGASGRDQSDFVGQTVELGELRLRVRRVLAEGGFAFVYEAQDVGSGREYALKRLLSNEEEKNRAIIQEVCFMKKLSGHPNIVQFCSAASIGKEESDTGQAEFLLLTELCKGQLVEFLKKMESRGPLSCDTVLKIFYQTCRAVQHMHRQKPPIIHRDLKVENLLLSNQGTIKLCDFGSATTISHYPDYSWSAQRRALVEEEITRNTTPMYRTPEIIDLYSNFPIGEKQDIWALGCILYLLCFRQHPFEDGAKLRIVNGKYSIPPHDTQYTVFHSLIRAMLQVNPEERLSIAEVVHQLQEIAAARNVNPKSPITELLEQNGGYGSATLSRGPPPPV
Kind of assay: DSF Tm panel. The format is binding. The note with it: 10 μM compound.

A further assay addresses T7, GSK3BB (Homo sapiens, UniProt P49841).
T7 construct: purchased in-house DSF kinase panel (SGC-style construct names; the trailing letter is the construct ID)
In words: DSF Tm panel. In kind it is binding. The note with it: 10 μM compound.

The next assay addresses T8, K2A2 (CSNK2A2A) (Homo sapiens, UniProt P19784).
T8 construct: purchased in-house DSF kinase panel (SGC-style construct names; the trailing letter is the construct ID)
In words: DSF Tm panel. The format is binding. The conditions noted are these: 10 μM compound.

Another assay has as its target T9, MAP2K1A (Homo sapiens, UniProt Q02750).
T9 construct: purchased in-house DSF kinase panel (SGC-style construct names; the trailing letter is the construct ID)
Kind of assay: DSF Tm panel. The conditions noted are these: 10 μM compound. The format is binding.

The target of another assay is T10, PAK4A (Homo sapiens, UniProt O96013).
T10 construct: purchased in-house DSF kinase panel (SGC-style construct names; the trailing letter is the construct ID)
In words: DSF Tm panel. The note with it: 10 μM compound. The format is binding.

For a further assay, the target named is T11, PLK4A (Homo sapiens, UniProt O00444).
T11 construct: purchased in-house DSF kinase panel (SGC-style construct names; the trailing letter is the construct ID)
T11 sequence (O00444 2-275): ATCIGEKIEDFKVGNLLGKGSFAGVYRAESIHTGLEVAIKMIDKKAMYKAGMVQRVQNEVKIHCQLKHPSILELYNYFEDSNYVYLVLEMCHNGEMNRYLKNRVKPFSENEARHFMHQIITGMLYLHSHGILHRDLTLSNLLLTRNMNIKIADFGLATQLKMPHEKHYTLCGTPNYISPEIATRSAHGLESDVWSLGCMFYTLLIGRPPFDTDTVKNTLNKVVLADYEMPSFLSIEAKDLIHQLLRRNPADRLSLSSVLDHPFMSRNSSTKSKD
In words: DSF Tm panel. In kind it is binding. The note with it: 10 μM compound.

The target in another assay is T12, STK17AA (Homo sapiens, UniProt Q9UEE5).
T12 construct: purchased in-house DSF kinase panel (SGC-style construct names; the trailing letter is the construct ID)
T12 sequence (Q9UEE5 61-321): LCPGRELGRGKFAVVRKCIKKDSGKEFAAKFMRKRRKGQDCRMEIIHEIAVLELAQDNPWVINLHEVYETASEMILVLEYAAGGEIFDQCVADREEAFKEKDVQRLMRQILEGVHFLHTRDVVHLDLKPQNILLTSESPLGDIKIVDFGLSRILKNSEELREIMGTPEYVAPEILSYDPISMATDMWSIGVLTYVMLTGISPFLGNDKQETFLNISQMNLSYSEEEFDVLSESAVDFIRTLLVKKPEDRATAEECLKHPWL
In words: DSF Tm panel. The format is binding. The conditions noted are these: 10 μM compound.

The target of a further assay is T13, STK6A (Homo sapiens, UniProt O14965).
T13 construct: purchased in-house DSF kinase panel (SGC-style construct names; the trailing letter is the construct ID)
T13 sequence (O14965 122-403): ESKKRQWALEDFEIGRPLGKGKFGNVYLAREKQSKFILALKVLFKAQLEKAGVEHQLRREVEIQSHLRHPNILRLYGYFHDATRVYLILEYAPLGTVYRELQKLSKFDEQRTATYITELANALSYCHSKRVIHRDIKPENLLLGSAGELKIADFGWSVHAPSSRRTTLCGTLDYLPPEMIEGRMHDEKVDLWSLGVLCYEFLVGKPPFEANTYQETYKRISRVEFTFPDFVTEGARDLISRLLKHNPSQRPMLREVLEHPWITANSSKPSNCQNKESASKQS
In words: DSF Tm panel. The format is binding. The conditions noted are these: 10 μM compound.

The next assay addresses SLK (Homo sapiens, UniProt Q9H2G2). Kind of assay: PhosphoSens in vitro activity assay. In kind it is biochemical. The conditions noted are these: ATP 150 μM.

T7 sequence (P49841 35-386): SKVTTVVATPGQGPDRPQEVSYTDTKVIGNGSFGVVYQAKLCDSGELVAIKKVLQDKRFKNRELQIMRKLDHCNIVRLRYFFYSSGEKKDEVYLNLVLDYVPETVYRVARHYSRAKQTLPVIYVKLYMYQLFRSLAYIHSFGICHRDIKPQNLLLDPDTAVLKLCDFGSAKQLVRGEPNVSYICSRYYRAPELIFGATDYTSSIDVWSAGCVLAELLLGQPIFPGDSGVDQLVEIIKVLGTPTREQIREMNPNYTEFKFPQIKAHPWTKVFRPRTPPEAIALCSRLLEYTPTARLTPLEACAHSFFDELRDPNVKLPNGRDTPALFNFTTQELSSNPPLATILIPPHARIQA
T3 sequence (Q8IU85 whole entry): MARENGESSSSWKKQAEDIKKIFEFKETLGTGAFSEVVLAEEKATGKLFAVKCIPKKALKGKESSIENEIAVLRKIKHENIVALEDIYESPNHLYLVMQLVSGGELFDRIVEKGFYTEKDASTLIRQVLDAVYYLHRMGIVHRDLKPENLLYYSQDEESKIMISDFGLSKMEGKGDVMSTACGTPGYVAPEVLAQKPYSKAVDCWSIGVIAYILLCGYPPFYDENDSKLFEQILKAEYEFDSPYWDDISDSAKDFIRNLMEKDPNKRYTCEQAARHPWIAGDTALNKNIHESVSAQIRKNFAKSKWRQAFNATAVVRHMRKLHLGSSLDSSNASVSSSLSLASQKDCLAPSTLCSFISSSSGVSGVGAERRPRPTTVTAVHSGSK
T1 sequence (Q9NSY1 38-345): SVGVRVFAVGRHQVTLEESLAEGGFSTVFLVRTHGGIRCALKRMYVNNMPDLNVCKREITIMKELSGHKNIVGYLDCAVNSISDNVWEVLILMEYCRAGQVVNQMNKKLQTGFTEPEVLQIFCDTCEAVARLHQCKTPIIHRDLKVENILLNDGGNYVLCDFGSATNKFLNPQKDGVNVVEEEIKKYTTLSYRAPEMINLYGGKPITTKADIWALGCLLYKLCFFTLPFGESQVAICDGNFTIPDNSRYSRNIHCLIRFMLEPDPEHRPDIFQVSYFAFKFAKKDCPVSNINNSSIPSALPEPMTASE
T8 sequence (P19784 whole entry): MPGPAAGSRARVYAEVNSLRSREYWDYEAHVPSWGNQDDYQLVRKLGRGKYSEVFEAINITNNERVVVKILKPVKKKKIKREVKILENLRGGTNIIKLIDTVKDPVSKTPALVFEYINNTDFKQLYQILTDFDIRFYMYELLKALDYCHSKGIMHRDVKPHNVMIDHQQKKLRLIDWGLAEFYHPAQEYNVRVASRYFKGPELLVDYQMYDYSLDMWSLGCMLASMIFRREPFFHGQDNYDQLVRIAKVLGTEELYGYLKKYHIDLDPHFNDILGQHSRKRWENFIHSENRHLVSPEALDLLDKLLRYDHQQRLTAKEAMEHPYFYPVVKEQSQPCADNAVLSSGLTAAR
T5 sequence (P11362 456-767): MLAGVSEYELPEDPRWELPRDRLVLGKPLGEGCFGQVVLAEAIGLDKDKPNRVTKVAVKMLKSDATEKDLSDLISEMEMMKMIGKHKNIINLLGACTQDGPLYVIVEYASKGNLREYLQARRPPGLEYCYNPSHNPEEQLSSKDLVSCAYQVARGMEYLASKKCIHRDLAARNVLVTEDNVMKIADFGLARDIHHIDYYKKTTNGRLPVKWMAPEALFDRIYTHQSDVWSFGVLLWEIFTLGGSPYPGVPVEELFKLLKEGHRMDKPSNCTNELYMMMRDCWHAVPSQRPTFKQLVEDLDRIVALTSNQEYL
T10 sequence (O96013 291-591): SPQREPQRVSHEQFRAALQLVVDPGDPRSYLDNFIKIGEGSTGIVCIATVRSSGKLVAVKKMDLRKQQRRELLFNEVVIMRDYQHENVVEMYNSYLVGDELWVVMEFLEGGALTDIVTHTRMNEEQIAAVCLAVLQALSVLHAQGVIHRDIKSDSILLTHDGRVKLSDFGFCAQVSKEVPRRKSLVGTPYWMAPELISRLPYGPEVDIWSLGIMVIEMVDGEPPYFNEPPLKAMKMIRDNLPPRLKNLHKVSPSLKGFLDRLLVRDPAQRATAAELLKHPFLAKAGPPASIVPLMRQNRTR
T2 sequence (P51813 411-675): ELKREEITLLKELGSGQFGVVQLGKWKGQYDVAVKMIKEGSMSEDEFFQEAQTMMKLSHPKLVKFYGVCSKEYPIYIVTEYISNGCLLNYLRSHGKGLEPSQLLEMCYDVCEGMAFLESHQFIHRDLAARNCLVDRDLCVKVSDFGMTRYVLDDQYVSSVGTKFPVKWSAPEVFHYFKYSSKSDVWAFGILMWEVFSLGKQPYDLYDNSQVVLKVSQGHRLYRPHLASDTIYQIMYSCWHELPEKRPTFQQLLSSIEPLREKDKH
T9 sequence (Q02750 68-361): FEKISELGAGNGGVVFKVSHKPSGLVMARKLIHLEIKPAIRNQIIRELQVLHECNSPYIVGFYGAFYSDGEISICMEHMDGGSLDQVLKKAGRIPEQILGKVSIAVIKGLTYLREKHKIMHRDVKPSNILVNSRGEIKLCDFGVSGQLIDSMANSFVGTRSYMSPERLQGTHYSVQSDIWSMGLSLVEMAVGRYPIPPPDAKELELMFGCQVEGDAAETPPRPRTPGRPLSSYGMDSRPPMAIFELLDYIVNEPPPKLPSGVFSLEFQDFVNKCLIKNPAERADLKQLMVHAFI

As for `Cc1cc(Br)ccc1CNC(=O)Nc1ccc2cc1OCCOCCNc1ccn3ncc-2c3n1` [compound 24], the thermal shift (ΔTm) at 10 µM on BMP2KA was found to be 6.7 °C; at BMX (BMXA) it was 1.8 °C; at CAMK1DA, 1.3 °C; on EPHA5A, 1.4 °C; on FGFR1B it was 1.2 °C; on GAKA, 5.9 °C. Also, the shift in melting temperature (ΔTm) at 10 µM is -0.2 °C on GSK3BB; 0.5 °C at K2A2 (CSNK2A2A); 0.6 °C on MAP2K1A; 1.9 °C at PAK4A; 2.3 °C at PLK4A; 2.3 °C on STK17AA. Further, the ΔTm at 10 µM at STK6A stood at 5.4 °C. At SLK, this compound had an IC50 of 5.35 ± 1.36 µM.

With `Cc1ccc(F)cc1CNC(=O)Nc1ccc2cc1OCCOCCNc1ccn3ncc-2c3n1` [compound 26], the thermal shift (ΔTm) at 10 µM on BMP2KA amounted to 9.1 °C; on BMX (BMXA) it was 0.3 °C; at CAMK1DA, 1 °C; on EPHA5A, 1.1 °C; at FGFR1B it was 1.9 °C; at GAKA, 6 °C. Moreover, the ΔTm at 10 µM at GSK3BB worked out at 0.5 °C; on K2A2 (CSNK2A2A), 0.9 °C; on MAP2K1A it was 0.3 °C; at PAK4A, 1.8 °C; on PLK4A it was 3.3 °C; at STK17AA, 5.2 °C. Further, the ΔTm at 10 µM at STK6A was 6.4 °C. In addition, on SLK, the half-maximal inhibitory concentration (IC50) amounted to 9.8 ± 2.41 µM.

Take `O=C(NCc1ccccc1C(F)(F)F)Nc1ccc2cc1OCCOCCNc1ccn3ncc-2c3n1` [compound 27]: the ΔTm at 10 µM on BMP2KA stood at 7.2 °C; on BMX (BMXA), 3 °C; at CAMK1DA, 1.7 °C; on EPHA5A, 1.6 °C; at FGFR1B, 1.3 °C; on GAKA it was 5.4 °C. Also, the ΔTm at 10 µM on GSK3BB was -0.2 °C; on K2A2 (CSNK2A2A), 0.7 °C; on MAP2K1A, 0.7 °C; on PAK4A it was 2.1 °C; on PLK4A, 3.9 °C; at STK17AA it was 4 °C. For the same compound, the ΔTm at 10 µM on STK6A turned out to be 7 °C. The compound further showed a concentration for half-maximal inhibition (IC50) against SLK of 2.74 ± 0.89 µM.

Take `COc1ccccc1CNC(=O)Nc1ccc2cc1OCCOCCNc1ccn3ncc-2c3n1` [compound 29]: the thermal shift (ΔTm) at 10 µM at BMP2KA was 8.3 °C; at BMX (BMXA), -0.1 °C; on CAMK1DA it was 0.4 °C; on EPHA5A, 0.6 °C; on FGFR1B it was 1.4 °C; at GAKA it was 4.5 °C. The shift in melting temperature (ΔTm) at 10 µM was determined as 1.2 °C at GSK3BB; 0.3 °C on K2A2 (CSNK2A2A); 0.6 °C at MAP2K1A; 1.3 °C at PAK4A; 3 °C on PLK4A; 3.1 °C on STK17AA. In addition, the ΔTm at 10 µM at STK6A was found to be 5.6 °C. For the same compound, 17.1 ± 2.86 µM corresponded to half-maximal inhibition on SLK (IC50).

Turning to `COc1cccc(CNC(=O)Nc2ccc3cc2OCCOCCNc2ccn4ncc-3c4n2)c1` [compound 30], the ΔTm at 10 µM at BMP2KA was 9.8 °C; on BMX (BMXA), 0.4 °C; at CAMK1DA, 0.4 °C; at EPHA5A, 0.7 °C; on FGFR1B, 1.4 °C; at GAKA, 4.7 °C. For the same compound, the ΔTm at 10 µM is 1.3 °C on GSK3BB; 0.8 °C on K2A2 (CSNK2A2A); 0.6 °C on MAP2K1A; 1.5 °C at PAK4A; 3.5 °C at PLK4A; 5.8 °C on STK17AA. For the same compound, the ΔTm at 10 µM on STK6A turned out to be 7.4 °C. For the same compound, the IC50 against SLK is > 20 µM.

With `COc1ccc(CNC(=O)Nc2ccc3cc2OCCOCCNc2ccn4ncc-3c4n2)cc1F` [compound 32], the ΔTm at 10 µM was found to be 10.9 °C at BMP2KA; 1.1 °C at BMX (BMXA); 1.4 °C at CAMK1DA; 1.2 °C at EPHA5A; 1.2 °C on FGFR1B; 6 °C at GAKA. For the same compound, the ΔTm at 10 µM at GSK3BB came out at 0.6 °C; at K2A2 (CSNK2A2A), 2.2 °C; at MAP2K1A it was 0.7 °C; at PAK4A, 2 °C; on PLK4A, 4.6 °C; at STK17AA, 5.3 °C. The shift in melting temperature (ΔTm) at 10 µM at STK6A worked out at 7.6 °C. At SLK, the half-inhibitory concentration (IC50) was found to be 11 ± 2.68 µM.

In the case of `COc1cc(CNC(=O)Nc2ccc3cc2OCCOCCNc2ccn4ncc-3c4n2)ccc1F` [compound 33], the ΔTm at 10 µM at BMP2KA came to 10.2 °C; at BMX (BMXA), 0.3 °C; on CAMK1DA it was 1.1 °C; at EPHA5A it was 1.4 °C; at FGFR1B, 1.9 °C; at GAKA it was 6.2 °C. Besides, the ΔTm at 10 µM at GSK3BB was determined as 1.6 °C; at K2A2 (CSNK2A2A), 1.7 °C; at MAP2K1A, 0.7 °C; on PAK4A, 2.2 °C; at PLK4A, 5.5 °C; on STK17AA it was 7.6 °C. In addition, on STK6A, the thermal shift (ΔTm) at 10 µM amounted to 9.9 °C. The concentration for half-maximal inhibition (IC50) against SLK was > 20 µM.

As for `C[C@H](NC(=O)Nc1ccc2cc1OCCOCCNc1ccn3ncc-2c3n1)c1ccccc1` [compound 34], the thermal shift (ΔTm) at 10 µM was 9.1 °C on BMP2KA; 0.1 °C at BMX (BMXA); 0.8 °C at CAMK1DA; 1 °C on EPHA5A; 1.2 °C at FGFR1B; 5.7 °C at GAKA. The ΔTm at 10 µM at GSK3BB was 1.1 °C; at K2A2 (CSNK2A2A), 1.2 °C; at MAP2K1A, 0.7 °C; on PAK4A, 1.4 °C; at PLK4A it was 4.7 °C; on STK17AA, 6 °C. Further, the thermal shift (ΔTm) at 10 µM at STK6A was 7.7 °C. At SLK, the half-inhibitory concentration (IC50) is > 20 µM.
